For the first experiment, the target named is T1, human H4 receptor (Homo sapiens, UniProt Q9H3N8).
T1 construct: expressed in transfected cells
T1 sequence (Q9H3N8 whole entry): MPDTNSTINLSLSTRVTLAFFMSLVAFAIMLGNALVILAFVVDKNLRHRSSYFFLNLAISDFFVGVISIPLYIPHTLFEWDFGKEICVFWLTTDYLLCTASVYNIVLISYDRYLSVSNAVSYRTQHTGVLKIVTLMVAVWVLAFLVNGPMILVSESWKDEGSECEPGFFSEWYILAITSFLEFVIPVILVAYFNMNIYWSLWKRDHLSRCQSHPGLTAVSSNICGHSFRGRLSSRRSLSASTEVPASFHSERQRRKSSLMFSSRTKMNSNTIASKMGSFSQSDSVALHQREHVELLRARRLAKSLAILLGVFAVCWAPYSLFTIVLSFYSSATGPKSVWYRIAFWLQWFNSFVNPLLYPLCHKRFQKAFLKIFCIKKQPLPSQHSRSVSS
The experiment can be described thus: [3H]Histamine binding on membranes of CHO cells stably expressing human H4 receptor.
Conditions: not given
The procedure:
CHO cells stably expressing human H4 receptor were grown until sub-confluence and centrifuged at 300 g 15 minutes at 4° C. Pellets were resuspended in buffer I Tris-HCl 50 mM, MgCl2 10 mM, NaCl 140 mM, pH=7.4 supplemented by a 1/50 dilution of a mix of protease inhibitors. The obtained suspension is stirred gently and submitted to a […] exerted through a syringe. The cell lysate is then centrifuged at 300 g 15 minutes at 4° C. in order to eliminate nucleus and cell scraps. The obtained supernatant was then centrifuged at 48000 g for 30 minutes at 4° C. The final pellet is resuspended in buffer I with a potter homogenizer. Aliquots were frozen in liquid nitrogen and stored until use at −80° C. Protein content is measured by the Bradford method.
Defreezed membranes were diluted at a final concentration of 20 μg/180 μL/well in a binding buffer containing 50 mM Tris/HCl, 0.5 mM EDTA, pH=7.4 and distributed in 96 well polystyrene microplate. [^3H] […] Non specific binding was estimated in the presence of 10 μM BP1.2404 (JNJ 7777120). The reaction was terminated by filtration through GF/B filters pre-soaked 2 hours at 4° C. in […]. Filters were rinsed 3 times with 250 μl of ice cold incubation binding buffer.
The filter-bound radioactivity was measured in a liquid scintillation counter Microbeta TRILUX® with 50 μl of scintillation fluid.
The hH4 binding investigated by use of [^3H]
Regarding `CCCOc1cccc(C(NC2CCN(C)CC2)c2nc3ccccc3s2)c1` (single isomer, unassigned) [Example 56, [benzothiazol-2-yl(3-propoxyphenyl)methyl](1-methylpiperidin-4-yl)amine], the Ki or IC50 activity class is below 300 nM.

Take `CCCOc1cccc(C(NC2CCN(C)CC2)c2nc3ccccc3s2)c1` (single isomer, unassigned) [Example 57, [benzothiazol-2-yl(3-propoxyphenyl)methyl](1-methylpiperidin-4-yl)amine]: the Ki or IC50 activity class was below 30 nM.

Compound `CN1CCC(OC(c2cccc(I)c2)c2nc3ccccc3s2)CC1` (single isomer, unassigned) [Example 117, 2-[(3-iodophenyl)(1-methylpiperidin-4-yloxy)methyl]benzothiazole] showed a Ki or IC50 activity class below 30 nM.

The compound `CN1CCC(OC(c2cccc(SCCO)c2)c2nc3ccccc3s2)CC1` (single isomer, unassigned) [Example 229, 2-{3-[benzothiazol-2-yl(1-methylpiperidin-4-yloxy)methyl]phenylsulfanyl}ethanol] came in with a Ki or IC50 activity class below 30 nM.

The compound `Cc1ccc(C(OC2CCN(C)CC2)c2nc3ccccc3[nH]2)cc1` (single isomer, unassigned) [Example 252, 2-[(1-methylpiperidin-4-yloxy)-p-tolylmethyl]-1H-benzimidazole] showed a Ki or IC50 activity class below 1000 nM.

`Cc1ccc(C(OC2CCN(C)CC2)c2nc3ccccc3[nH]2)cc1` (single isomer, unassigned) [Example 253, 2-[(1-methylpiperidin-4-yloxy)-p-tolylmethyl]-1H-benzimidazole] returned a Ki or IC50 activity class below 30 nM.

`CN1CCC(OC(c2nc3ccccc3[nH]2)c2cc(OC(F)(F)F)ccc2F)CC1` (single isomer, unassigned) [Example 435, 2-[(2-fluoro-5-trifluoromethoxyphenyl)(1-methylpiperidin-4-yloxy)methyl]-1H-benzimidazole] came in with a Ki or IC50 activity class below 30 nM.

Consider `CN1CCC(COC(c2cccc(Br)c2)c2nc3ccccc3s2)C1` (single isomer, unassigned) [Example 464], for which the Ki or IC50 activity class was below 30 nM.

Consider `Cc1ccc(C(OC2CCN(C)CC2)c2nc3ccccc3[nH]2)c(F)c1` (single isomer, unassigned) [Example 533, 2-[(2-fluoro-4-methylphenyl)(1-methylpiperidin-4-yloxy)methyl]-1H-benzimidazole], for which the Ki or IC50 activity class is below 30 nM.

Compound `Cc1cc(F)c(C(OC2CCN(C)CC2)c2nc3ccccc3[nH]2)c(F)c1` (single isomer, unassigned) [Example 559, 2-[(2,6-difluoro-4-methylphenyl)(1-methylpiperidin-4-yloxy)methyl]-1H-benzimidazole] displayed a Ki or IC50 activity class below 30 nM.

For the compound `CN1CCC(OC(c2cccc(Br)c2)c2nc3cc(F)ccc3[nH]2)CC1` (single isomer, unassigned) [Example 568, 2-[(3-bromophenyl)(1-methylpiperidin-4-yloxy)methyl]-5-fluoro-1H-benzimidazole], the Ki or IC50 activity class was below 30 nM.

Compound `CN1CCC(OC(c2nc3ccccc3[nH]2)c2ccccc2O)CC1` (single isomer, unassigned) [Example 627, 2-[(1H-benzimidazol-2-yl)(1-methylpiperidin-4-yloxy)methyl]phenol] yielded a Ki or IC50 activity class below 30 nM.

Compound `CN1CCC(OC(c2ccccc2)c2nc3ccccc3s2)C1` (stereo not shown) [Example 2, 2-[(1-methylpyrrolidin-3-yloxy)phenyl-methyl]benzothiazole] registered a Ki or IC50 activity class below 1000 nM.

Take `CN1CCC(OC(c2ccc(F)cc2)c2nc3ccccc3s2)CC1` (stereo not shown) [Example 3, 2-[(4-fluorophenyl)(1-methylpiperidin-4-yloxy)methyl]benzothiazole]: the Ki or IC50 activity class is below 300 nM.

Turning to `CN1CCC(OC(c2ccc(Cl)cc2)c2nc3ccccc3s2)CC1` (stereo not shown) [Example 4, 2-[(4-chlorophenyl)(1-methylpiperidin-4-yloxy)methyl]benzothiazole], the Ki or IC50 activity class was below 1000 nM.

Regarding `CN1CCC(OC(c2cccc(F)c2)c2nc3ccccc3s2)CC1` (stereo not shown) [Example 5], the Ki or IC50 activity class was below 300 nM.

`CN1CCC(OC(c2nc3ccccc3s2)c2ccccc2F)CC1` (stereo not shown) [Example 6, 2-[(2-fluorophenyl)(1-methylpiperidin-4-yloxy)methyl]benzothiazole] yielded a Ki or IC50 activity class below 300 nM.

On to `Cc1ccc(C(OC2CCN(C)CC2)c2nc3ccccc3s2)cc1` (stereo not shown) [Example 7, 2-[(1-methylpiperidin-4-yloxy)-p-tolylmethyl]benzothiazole], for which the Ki or IC50 activity class is below 300 nM.

`Cc1cccc(C(OC2CCN(C)CC2)c2nc3ccccc3s2)c1` (stereo not shown) [Example 8, 2-[(1-methylpiperidin-4-yloxy)(m-tolyl)methyl]benzothiazole] yielded a Ki or IC50 activity class below 30 nM.

Turning to `CN1CCC(NC(c2ccccc2)c2nc3ccccc3s2)CC1` (stereo not shown) [Example 9, (benzothiazol-2-yl-phenylmethyl)(1-methylpiperidin-4-yl)amine], the Ki or IC50 activity class is below 30 nM.

In turn, `CN1CCC(OC(c2ccc3c(c2)OCCO3)c2nc3ccccc3s2)CC1` (stereo not shown) [Example 10, 2-[(2,3-dihydrobenzo[1,4]dioxin-6-yl)(1-methylpiperidin-4-yloxy)methyl]benzothiazole] yielded a Ki or IC50 activity class below 30 nM.

In turn, `COc1cccc(C(OC2CCN(C)CC2)c2nc3ccccc3s2)c1` (stereo not shown) [Example 11, 2-[(3-methoxyphenyl)(1-methylpiperidin-4-yloxy)methyl]benzothiazole] displayed a Ki or IC50 activity class below 30 nM.

Take `CN1CCC(OC(c2nc3ccccc3s2)c2ccc(F)cc2F)CC1` (stereo not shown) [Example 12, 2-[(2,4-difluorophenyl)(1-methyl-piperidin-4-yloxy)methyl]-benzothiazole]: the Ki or IC50 activity class was below 300 nM.

Compound `CN1CCC(OC(c2cccs2)c2nc3ccccc3s2)CC1` (stereo not shown) [Example 13, 2-[(1-methylpiperidin-4-yloxy)thiophen-2-ylmethyl]benzothiazole] returned a Ki or IC50 activity class below 300 nM.

Regarding `COc1ccc(C(OC2CCN(C)CC2)c2nc3ccccc3s2)cc1` (stereo not shown) [Example 14, 2-[(4-methoxyphenyl)(1-methylpiperidin-4-yloxy)methyl]benzothiazole], the Ki or IC50 activity class is below 1000 nM.

Turning to `CN1CCC(OC(c2cc(F)cc(F)c2)c2nc3ccccc3s2)CC1` (stereo not shown) [Example 15, 2-[(3,5-difluorophenyl)(1-methyl-piperidin-4-yloxy)methyl]benzothiazole], the Ki or IC50 activity class was below 300 nM.

The compound `CN1CCC(OC(c2ccsc2)c2nc3ccccc3s2)CC1` (stereo not shown) [Example 16, 2-[(1-methylpiperidin-4-yloxy)thiophen-3-ylmethyl]benzothiazole] yielded a Ki or IC50 activity class below 30 nM.

As to `CN1CCC(OC(c2ccc3ccccc3c2)c2nc3ccccc3s2)CC1` (stereo not shown) [Example 18, 2-[(1-methylpiperidin-4-yloxy)naphthalen-2-ylmethyl]benzothiazole], the Ki or IC50 activity class is below 300 nM.

In turn, `Cc1ccc(C(OC2CCN(C)CC2)c2nc3ccccc3s2)s1` (stereo not shown) [Example 19, 2-[(1-methylpiperidin-4-yloxy)(5-methylthiophen-2-yl)methyl]benzothiazole] registered a Ki or IC50 activity class below 300 nM.

The compound `CN1CCC(OC(c2ccc3c(c2)OCO3)c2nc3ccccc3s2)CC1` (stereo not shown) [Example 20, 2-[benzo[1,3]dioxol-5-yl(1-methylpiperidin-4-yloxy)methyl]benzothiazole] gave a Ki or IC50 activity class below 300 nM.

As to `Cc1cccc(C(NC2CCN(C)CC2)c2nc3ccccc3s2)c1` (stereo not shown) [Example 21, [(benzothiazol-2-yl)(m-tolyl)methyl](1-methylpiperidin-4-yl)amine], the Ki or IC50 activity class was below 300 nM.

`C=CCOc1cccc(C(OC2CCN(C)CC2)c2nc3ccccc3s2)c1` (stereo not shown) [Example 22, 2-[(3-allyloxyphenyl)(1-methylpiperidin-4-yloxy)methyl]benzothiazole] had a Ki or IC50 activity class below 30 nM.

For the compound `CN1CCC(OC(c2cccc(OC(F)(F)F)c2)c2nc3ccccc3s2)CC1` (stereo not shown) [Example 23, 2-[(1-methylpiperidin-4-yloxy)(3-trifluoromethoxyphenyl)methyl]benzothiazole], the Ki or IC50 activity class was below 30 nM.

For the compound `CN1CCC(OC(c2ccc(OC(F)(F)F)cc2)c2nc3ccccc3s2)CC1` (stereo not shown) [Example 24, 2-[(1-methylpiperidin-4-yloxy)(4-trifluoromethoxyphenyl)methyl]benzothiazole], the Ki or IC50 activity class is below 1000 nM.

The compound `COc1cccc(C(NC2CCN(C)CC2)c2nc3ccccc3s2)c1` (stereo not shown) [Example 25, [benzothiazol-2-yl(3-methoxyphenyl)methyl](1-methylpiperidin-4-yl)amine] displayed a Ki or IC50 activity class below 30 nM.

The experiment is the same for the next values; noted with them: human H4 receptor; evaluated in the GTPγ[35S] assay or in the [3H]histamine binding assay (not stated which per compound); Ki or IC50 class.
On to “4-[benzothiazol-2-yl(3-bromo-phenyl)methoxy]-1,1-dimethylpiperidinium [Example 188]”, for which the Ki or IC50 activity class is below 30 nM.

In turn, `CN1CCC(OC(c2cccc(I)c2)c2nc3ccccc3s2)CC1` (single isomer, unassigned) [Example 118, 2-[(3-iodophenyl)(1-methylpiperidin-4-yloxy)methyl]benzothiazole] came in with a Ki or IC50 activity class below 30 nM.

The values above are taken from patent US8802664B2 (Bioproject, priority 2010, dated 2014).
